Measurements as given in patent publication US20220142160A1, “METHOD OF INHIBITING OR REDUCING BIOFILM IN A PETROLEUM PRODUCTION PROCESS” (KEMIRA OYJ, priority 2019, published 2022).
“And” between values parts separate entries of the source, which are not always exact repeats. Identical values can stand only once.

Assays:
Type in all cases: cell-based, mixed culture of oil field bacteria
[1] = test system: Sulphate Reducing Bacteria (SRB); assay: Bacterial growth control test, planktonic bacterial counts, SRB; conditions: 75 ppm AMA-324 (active ingredient), sampled day 6; 3.5% nutrient brine with dodecane, 32° C., 75 rpm
Procedure: (§1) A mixed culture of oil field bacteria with Sulphate Reducing Bacteria (SRB), Acid Producing Bacteria (APB), and General Heterotrophic Bacteria (GHB) that came from an oil field system and had been frozen in glycerol maintained at −80° C. was used to study the effect of the test chemical compounds on biofilm formation and control thereof.
(§2) Biofilm tests were performed in 3.5 weight-% nutrient brine (NB) solution with minimal nutrients and a mixture of dodecane isomers, which are customary in oil field production waters and storage tanks.
(§3) The oilfield bacteria consortia was inoculated into the 3.5 weight-% nutrient brine solution and allowed to acclimate overnight at 32° C. in bulk. After acclimation, the solution was divided into 250 mL Pyrex bottles to contain 200 mL of the inoculated 3.5 weight-% nutrient brine and 25 mL of dodecane. Biofilms were grown on glass slides as removable attachment surfaces. Bottles were incubated at 32° C. with a rotary shaking (75 rpm) providing medium flow in each container.
(§4) Reactors each containing 200 mL of 3.5% nutrient brine were inoculated with the oilfield bacterial consortia and 25 mL of dodecane was treated with different amounts of the chemical compounds to be tested. A nitrogen blanket was added to the top of each reactor to minimize the oxygen content and allow a beneficial environment for anaerobic bacterial growth. […]

[2] = test system: General Heterotrophic Bacteria (GHB); assay: Bacterial growth control test, planktonic bacterial counts, GHB; conditions: 75 ppm AMA-324 (active ingredient), sampled day 6; 3.5% nutrient brine with dodecane, 32° C., 75 rpm
Procedure: as §1, §2, §3, §4

[3] = test system: Sulphate Reducing Bacteria (SRB); assay: Sessile bacterial counts from biofilm scraped off glass slides, SRB; conditions: slide scraped day 6, 3.5% nutrient brine with dodecane, 32° C., 75 rpm
Procedure: as §1, §2, §3, §4

[4] = test system: mixed oilfield bacterial consortia; assay: Biocidal activity on mixed oilfield bacterial consortia (bacterial counts)
Procedure: as §1, §2, §3, §4

[5] = test system: biofilm of mixed oilfield consortia; assay: Quantification of formed biofilm, weight gain of glass slides; design: average weight gain of Slides A and B: unit: mg; conditions: for average weight gain of Slides A and B: day 6; for Slide A weight gain: slide removed day 6, dried and weighed without further manipulation; for Slide B weight gain: slide removed day 6, scraped at 1 cm^2, then dried and weighed
Procedure: as §1, §2, §3
Two glass slides were added to each reactor bottle as described above and below and were removed at the end of the 6-day test for observation of biofilm accumulation, with the following considerations. For biofilm control experiments comprising biofilm removal from glass slides in 3.5% nutrient brine media inoculated with the mixed oilfield bacterial cultures and dodecane, biofilm was grown without addition of any test chemical compound to be tested in the control. In the reactors containing the test chemical compound, they were re-dosed daily for 5 days. A nitrogen blanket was added to each reactor after each dosing.
As described above, two glass slides were added to each reactor bottle. One was used for bacterial counts and the second was used to observe for biofilm accumulation. The second glass slide used to observe for growth was rinsed with deionized water, dried for 20 hours at 70° C., weighed and photographed. The weight values shown in the following tables are weights from 3 replicate reactor bottles. All weight values are given as actual measured values of the glass slides.
Table 3 presents results related to the effect on biofilm biomass of Compound A and AMA-324 dosing on the mixed oilfield consortia in 3.5 weight-% nutrient brine with dodecane at 32° C. and 75 rpm. Compound A was dosed daily for 5 days. AMA-324 was dosed at initial set-up only. Two glass slides were each weighed and added to each test container at set-up. After dosing for 5 days, at day 6, the slides were removed for analysis. Slide A was dried and weighed without further manipulation. Slide B was scrapped at 1 cm^2 with a sterile wooden stick into sterile phosphate buffer solution for bacterial counts. The scraped glass slide was then dried and weighed.

[6] = test system: Acid Producing Bacteria (APB); assay: Bacterial growth control test, planktonic bacterial counts, APB; conditions: 75 ppm AMA-324 (active ingredient), sampled day 6; 3.5% nutrient brine with dodecane, 32° C., 75 rpm
Procedure: as §1, §2, §3, §4

[7] = test system: biofilm biomass; assay: Optical density measurements of biofilm biomass; conditions: data not shown
[8] = 75 ppm AMA-324 dosed at initial set-up only
[9] = 2 ppm Compound A dosed daily for 5 days
[10] = 5 ppm Compound A dosed daily for 5 days

CN1CSC(=S)N(C)C1 [AMA-324, Tetrahydro-3,5-dimethyl-2H-1,3,5-thiadiazine-2-thione, reference compound]
Planktonic Bacterial Counts/mL SRB bacteria [1]: <0.3 Counts/mL
Planktonic Bacterial Counts/mL GHB bacteria [2]: <0.3 Counts/mL
Sessile Bacterial Counts/mL SRB bacterial ([3]; 75 ppm AMA-324 (active ingredient)): <0.6 Counts/mL
biocidal activity (bacterial counts as compared to the control) ([4]; dosage of 75 ppm active ingredient alone): acted as a biocide
average weight gain of Slides A and B [5, 8]: 1.60 and 2.05 and 1.85
Slide A weight gain [5, 8]: 1.35 mg and 1.95 mg and 1.6 mg
Slide B weight gain [5, 8]: 1.85 mg and 2.15 mg and 2.1 mg
Planktonic Bacterial Counts/mL APB bacteria [6]: <0.3 Counts/mL

Cc1ccc(S(=O)(=O)C=CC#N)cc1 [Compound A, 3-[(4-methylphenyl)sulfonyl]-2-propenenitrile]
Sessile Bacterial Counts/mL SRB bacterial ([3]; 5.0 ppm Compound A dosed daily for 5 days): 1.90E+07 Counts/mL
biocidal activity (bacterial counts as compared to the control) ([4]; dosage range of 1 ppm to 5 ppm, mixed oilfield bacterial consortia, anaerobic environment): did not act as a biocidal agent
amount of biofilm biomass by optical density measurements [7]: decreased the amount of biofilm biomass
average weight gain of Slides A and B [5, 9]: 0.22 and 0.40 and 0.20
Slide B weight gain [5, 9]: 0.15 mg and 0.2 mg and 0.3 mg
average weight gain of Slides A and B [5, 10]: 0.65 and 0.50 and 0.88
Slide A weight gain [5, 10]: 0.7 mg and 0.75 mg and 0.85 mg
biofilm formation (weight of slides versus control or AMA-324) ([5]; Table 3 results, 1 to 5 ppm dosed daily for 5 days): very effectively reduced biofilm formation
